One experiment has as its target T1, hMAO‐A (Homo sapiens, UniProt P21397).
T1 construct: purchased Sigma Aldrich M7316
T1 sequence (P21397 1-527): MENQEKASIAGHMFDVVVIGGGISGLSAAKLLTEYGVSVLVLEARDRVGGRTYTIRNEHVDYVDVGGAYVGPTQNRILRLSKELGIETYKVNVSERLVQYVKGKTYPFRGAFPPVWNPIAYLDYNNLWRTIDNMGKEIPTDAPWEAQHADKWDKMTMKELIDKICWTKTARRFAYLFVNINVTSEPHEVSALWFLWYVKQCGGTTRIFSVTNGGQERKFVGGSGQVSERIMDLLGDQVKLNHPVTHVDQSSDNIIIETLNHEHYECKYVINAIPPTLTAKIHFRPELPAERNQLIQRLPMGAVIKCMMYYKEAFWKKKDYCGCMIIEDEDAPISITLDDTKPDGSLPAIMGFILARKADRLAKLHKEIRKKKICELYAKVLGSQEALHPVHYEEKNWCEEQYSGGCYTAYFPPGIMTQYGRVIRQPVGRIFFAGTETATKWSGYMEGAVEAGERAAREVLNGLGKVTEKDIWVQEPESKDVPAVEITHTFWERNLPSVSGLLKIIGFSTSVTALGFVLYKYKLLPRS
As to the kind of experiment: In vitro fluorometric MAO-A inhibition assay (tyramine substrate, horseradish peroxidase coupling). It counts as biochemical. The procedure: (§1) The in vitro fluorometric technique was used to assess each newly generated substance's inhibitory activity against hMAO‐A and hMAO‐B. In a horseradish peroxidase coupling reaction, the oxired reagent (10‐acetyl‐3,7‐dihydroxyphenoxazine) detects H2O2, a result of the oxidative deamination of tyramine, which is utilized as an MAO substrate. The test was carried out in two steps. First, each compound's concentrations of 10^–3 and 10^–4 M were investigated. […] These parameters of this study were made as in previous studies. We purchased these two enzymes from Sigma Aldrich (M7316‐Monoamine Oxidase A human and M7441‐ […]).

Experiment [1] addresses T2, AChE from Electrophorus electricus (electric eel) (Electrophorus electricus, UniProt O42275).
T2 construct: purchased Sigma Aldrich C3389
Nature of the experiment: biochemical. To be noted: for IC50: AChI substrate, DTNB, 412 nm, Tris/HCl pH 8.0; for Ki: read-out: K i (nM) AChE. The procedure: Both […] (AChI) and butyrylcholine iodide (BChI) were used as substrates for the enzymatic hydrolysis reactions, with 5,5′‐dithiobis(2‐nitrobenzoic acid) (DTNB) serving as a common reagent for detecting the activities of AChE and BChE. The assay was conducted: 1 mL of 1.0 M Tris/HCl buffer (pH 8.0) was mixed with 10 μL of the sample solution in deionized water. To this mixture, 50 μL of AChE or BChE enzyme solution was added, and the reaction was incubated at room temperature for 10 min. After incubation, 50 μL of DTNB (0.5 mM) was introduced, followed by the addition of 50 μL of either AChI or BChI (10 mM), initiating the enzymatic reaction. […] This color change is due to the reaction of DTNB with thiocholine released during the hydrolysis of AChI or BChI. For every inhibitor that was utilized, IC50 and K i values were determined. In this study, C7512‐ BChE from equine serum and C3389‐ AChE from Electrophorus electricus (electric eel) were purchased from Sigma Aldrich.

The next experiment deals with T3, BChE from equine serum (Equus caballus, UniProt P81908).
T3 construct: C7512‐ BChE from equine serum; purchased Sigma Aldrich C7512; host or cells: equine serum
As to the kind of experiment: biochemical. Conditions: for IC50: BChI substrate, DTNB, 412 nm, Tris/HCl pH 8.0; for Ki: read-out: K i (nM) BChE. How it is done:
Both […] (AChI) and butyrylcholine iodide (BChI) were used as substrates for the enzymatic hydrolysis reactions, with 5,5′‐dithiobis(2‐nitrobenzoic acid) (DTNB) serving as a common reagent for detecting the activities of AChE and BChE. The assay was conducted: 1 mL of 1.0 M Tris/HCl buffer (pH 8.0) was mixed with 10 μL of the sample solution in deionized water. To this mixture, 50 μL of AChE or BChE enzyme solution was added, and the reaction was incubated at room temperature for 10 min. After incubation, 50 μL of DTNB (0.5 mM) was introduced, followed by the addition of 50 μL of either AChI or BChI (10 mM), initiating the enzymatic reaction. The hydrolysis of the substrates was monitored spectrophotometrically by measuring the absorbance at 412 nm, corresponding to the formation of the yellow‐colored 5‐thio‐2‐nitrobenzoate anion. This color change is due to the reaction of DTNB with thiocholine released during the hydrolysis of AChI or BChI. For every inhibitor that was utilized, IC50 and K i values were determined. In this study, C7512‐ BChE from equine serum and C3389‐ AChE from Electrophorus electricus (electric eel) were purchased from Sigma Aldrich.

The target of a further experiment is T4, hMAO‐B (Homo sapiens, UniProt P27338).
T4 construct: purchased Sigma Aldrich M7441
T4 sequence (P27338 1-520): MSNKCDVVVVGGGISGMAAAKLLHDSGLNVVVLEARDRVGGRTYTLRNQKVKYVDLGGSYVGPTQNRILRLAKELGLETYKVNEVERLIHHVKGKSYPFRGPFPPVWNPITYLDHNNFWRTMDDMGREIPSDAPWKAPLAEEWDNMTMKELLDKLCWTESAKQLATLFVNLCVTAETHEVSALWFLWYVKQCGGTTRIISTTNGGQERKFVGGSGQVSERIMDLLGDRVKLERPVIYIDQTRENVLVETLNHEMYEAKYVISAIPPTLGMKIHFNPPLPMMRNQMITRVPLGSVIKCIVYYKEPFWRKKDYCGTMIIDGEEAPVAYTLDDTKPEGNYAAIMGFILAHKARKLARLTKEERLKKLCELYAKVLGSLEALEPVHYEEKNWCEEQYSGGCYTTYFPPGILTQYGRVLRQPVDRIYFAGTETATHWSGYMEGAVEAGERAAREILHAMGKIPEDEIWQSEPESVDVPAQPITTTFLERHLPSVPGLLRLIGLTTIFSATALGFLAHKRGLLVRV
Nature of the experiment: In vitro fluorometric MAO-B inhibition assay (tyramine substrate, horseradish peroxidase coupling). It counts as biochemical. The procedure: as §1

SMILES strings stand for the structures.

T3 sequence (P81908 whole entry): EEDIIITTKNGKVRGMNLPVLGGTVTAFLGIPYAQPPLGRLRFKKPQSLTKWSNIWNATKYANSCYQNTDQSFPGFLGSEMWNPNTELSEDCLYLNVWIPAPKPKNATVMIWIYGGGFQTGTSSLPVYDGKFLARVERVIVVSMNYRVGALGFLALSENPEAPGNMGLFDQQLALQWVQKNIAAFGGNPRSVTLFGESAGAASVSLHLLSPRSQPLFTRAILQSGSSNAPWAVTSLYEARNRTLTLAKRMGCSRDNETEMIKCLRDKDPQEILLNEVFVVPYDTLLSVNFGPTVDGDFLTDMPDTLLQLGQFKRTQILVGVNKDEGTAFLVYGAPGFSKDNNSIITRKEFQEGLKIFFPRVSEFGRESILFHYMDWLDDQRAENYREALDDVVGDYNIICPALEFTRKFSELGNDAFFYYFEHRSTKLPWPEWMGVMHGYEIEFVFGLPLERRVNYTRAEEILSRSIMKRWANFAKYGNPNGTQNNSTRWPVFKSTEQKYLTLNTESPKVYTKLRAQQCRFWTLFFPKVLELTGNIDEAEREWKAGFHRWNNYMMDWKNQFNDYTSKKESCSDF
T2 sequence (O42275 24-633): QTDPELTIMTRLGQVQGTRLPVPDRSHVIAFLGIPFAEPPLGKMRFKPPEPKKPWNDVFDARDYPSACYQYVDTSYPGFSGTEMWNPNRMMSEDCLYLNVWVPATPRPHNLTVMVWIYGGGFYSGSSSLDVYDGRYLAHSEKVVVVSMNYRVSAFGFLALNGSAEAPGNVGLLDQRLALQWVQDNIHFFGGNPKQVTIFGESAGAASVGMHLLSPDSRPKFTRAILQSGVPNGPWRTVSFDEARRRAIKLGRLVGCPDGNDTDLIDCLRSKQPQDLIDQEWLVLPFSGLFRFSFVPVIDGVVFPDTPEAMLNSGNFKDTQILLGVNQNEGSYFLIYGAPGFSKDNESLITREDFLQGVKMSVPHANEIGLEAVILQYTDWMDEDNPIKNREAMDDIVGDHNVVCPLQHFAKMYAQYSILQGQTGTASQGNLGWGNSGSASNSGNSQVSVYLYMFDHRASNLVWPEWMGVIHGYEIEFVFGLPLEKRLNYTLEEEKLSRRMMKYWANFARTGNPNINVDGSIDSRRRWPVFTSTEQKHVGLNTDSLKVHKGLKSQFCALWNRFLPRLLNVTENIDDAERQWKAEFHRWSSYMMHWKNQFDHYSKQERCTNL

Broadly, the IC50 is the concentration needed to halve the response being measured. A lower IC50 goes with inhibition by little substance. On to `CCN(CC)c1ccc(/C=N/NC(=S)Nc2ccccc2)c(OS(=O)(=O)c2ccc3ccccc3c2)c1` [Compound 5c, (E)‐5‐(Diethylamino)‐2‐{[2‐(phenylcarbamothioyl)hydrazono]methyl}phenyl naphthalene‐2‐sulfonate], for which the IC50 against hMAO‐A worked out at 189 ± 6.46 nM; in experiment [1], 38.4 ± 5.03 nM; against BChE from equine serum, 218 ± 8.41 nM; against hMAO‐B, 296 ± 6.01 nM. Further, the Ki in experiment [1] came out at 25.4 ± 5.32 nM; on BChE from equine serum, 183 ± 15 nM.
For `CCN(CC)c1ccc(/C=N/NC(=S)Nc2c(C)cccc2C)c(OS(=O)(=O)c2ccc3ccccc3c2)c1` [Compound 5j, (E)‐5‐(Diethylamino)‐2‐({2‐[(2,6‐dimethylphenyl)carbamothioyl]hydrazono}methyl)phenyl naphthalene‐2‐sulfonate], the 50% inhibitory concentration (IC50) at hMAO‐A was 137 ± 6.21 nM; in experiment [1] it was 40.6 ± 2.77 nM; against BChE from equine serum, 265 ± 7.9 nM; on hMAO‐B, 395 ± 8.35 nM. Further, the values for the Ki (in experiment [1]; at BChE from equine serum) were 36.5 ± 5.23 nM and 228 ± 12.4 nM, respectively.
Regarding `CCN(CC)c1ccc(/C=N/NC(=S)NCC(C)C)c(OS(=O)(=O)c2ccc3ccccc3c2)c1` [Compound 5f, (E)‐5‐(Diethylamino)‐2‐{[2‐(isobutylcarbamothioyl)hydrazono]methyl}phenyl naphthalene‐2‐sulfonate], the 50% inhibitory concentration (IC50) came out at 134 ± 8.04 nM at hMAO‐A, 49.5 ± 5.21 nM in experiment [1], 254 ± 6.31 nM at BChE from equine serum and 388 ± 5.37 nM against hMAO‐B. The values for the Ki (in experiment [1]; on BChE from equine serum) were 38.8 ± 6.18 nM and 240 ± 18.6 nM, respectively.
As to `CCN(CC)c1ccc(/C=N/NC(=S)NCc2ccccc2)c(OS(=O)(=O)c2ccc3ccccc3c2)c1` [Compound 5s, (E)‐2‐{[2‐(Benzylcarbamothioyl)hydrazono]methyl}‐5‐(diethylamino)phenyl naphthalene‐2‐sulfonate], the IC50 at hMAO‐A is 131 ± 5.34 nM; in experiment [1], 71.4 ± 8.92 nM; against BChE from equine serum, 220 ± 8.53 nM; against hMAO‐B, 369 ± 12 nM. Further, the Ki in experiment [1] came out at 63.9 ± 7.54 nM; on BChE from equine serum, 195 ± 13.5 nM.
Take `CCN(CC)c1ccc(C=NNC(=S)NCCCSC)c(OS(=O)(=O)c2ccc3ccccc3c2)c1` [Compound 5g]: the IC50 against hMAO‐A was determined as 188 ± 5.36 nM; in experiment [1] it was 80.4 ± 7.62 nM; against BChE from equine serum it was 287 ± 8.57 nM; on hMAO‐B it was 399 ± 7.93 nM. Besides, the Ki in experiment [1] came out at 72.4 ± 10.1 nM; on BChE from equine serum it was 258 ± 16.1 nM.
For `CCN(CC)c1ccc(/C=N/NC(=S)Nc2cccc([N+](=O)[O-])c2)c(OS(=O)(=O)c2ccc3ccccc3c2)c1` [Compound 5o, (E)‐5‐(Diethylamino)‐2‐({2‐[(3‐nitrophenyl)carbamothioyl]hydrazono}methyl)phenyl naphthalene‐2‐sulfonate], the half-maximal inhibitory concentration (IC50) against hMAO‐A amounted to 123 ± 7.01 nM; in experiment [1] it was 18.9 ± 1.33 nM; at BChE from equine serum, 192 ± 6.36 nM; against hMAO‐B it was 267 ± 6.35 nM. Further, the Ki in experiment [1] was determined as 14.2 ± 2.32 nM; on BChE from equine serum, 160 ± 9.01 nM.
`CCN(CC)c1ccc(/C=N/NC(=S)Nc2c(Cl)cccc2Cl)c(OS(=O)(=O)c2ccc3ccccc3c2)c1` [Compound 5u, (E)‐2‐({2‐[(2,6‐Dichlorophenyl)carbamothioyl]hydrazono}methyl)‐5‐(diethylamino)phenyl naphthalene‐2‐sulfonate]: the half-inhibitory concentration (IC50) was determined as 96.2 ± 5.77 nM on hMAO‐A, 12.9 ± 1.02 nM in experiment [1], 148 ± 7.35 nM against BChE from equine serum and 209 ± 5.84 nM against hMAO‐B. Further, the Ki in experiment [1] is 9.82 ± 1.76 nM; at BChE from equine serum, 112 ± 7.61 nM.
Consider `CCN(CC)c1ccc(/C=N/NC(=S)NCc2ccc(Cl)cc2)c(OS(=O)(=O)c2ccc3ccccc3c2)c1` [Compound 5q, (E)‐2‐({2‐[(4‐Chlorobenzyl)carbamothioyl]hydrazono}methyl)‐5‐(diethylamino)phenyl naphthalene‐2‐sulfonate], for which the half-maximal inhibitory concentration (IC50) was 119 ± 9.24 nM on hMAO‐A, 19.3 ± 1.28 nM in experiment [1], 202 ± 14.9 nM on BChE from equine serum and 308 ± 6.07 nM at hMAO‐B. The results for the Ki (in experiment [1]; on BChE from equine serum) were 17.6 ± 3.34 nM and 183 ± 11.5 nM, respectively.
For `CCN(CC)c1ccc(/C=N/NC(=S)Nc2cccc(Cl)c2)c(OS(=O)(=O)c2ccc3ccccc3c2)c1` [Compound 5e, (E)‐2‐({2‐[(3‐chlorophenyl)carbamothioyl]hydrazono}methyl)‐5‐(diethylamino)phenyl naphthalene‐2‐sulfonate], the IC50 is 117 ± 7.33 nM against hMAO‐A, 31 ± 4.16 nM in experiment [1], 208 ± 7.53 nM on BChE from equine serum and above 1000 nM on hMAO‐B. The Ki in experiment [1] came to 25.4 ± 3.32 nM; at BChE from equine serum, 195 ± 11.5 nM.
In the case of `CCN(CC)c1ccc(/C=N/NC(=S)NCCc2ccccc2)c(OS(=O)(=O)c2ccc3ccccc3c2)c1` [Compound 5t, (E)‐5‐(Diethylamino)‐2‐{[2‐(phenethylcarbamothioyl)hydrazono]methyl}phenyl naphthalene‐2‐sulfonate], the 50% inhibitory concentration (IC50) on hMAO‐A is 139 ± 6.02 nM; in experiment [1], 56.2 ± 4.58 nM; at BChE from equine serum, 271 ± 6.9 nM; at hMAO‐B it was 289 ± 9.11 nM. Besides, the Ki in experiment [1] was 48.3 ± 7.32 nM; on BChE from equine serum, 227 ± 16.1 nM.
With `CCN(CC)c1ccc(/C=N/NC(=S)Nc2ccccc2C(F)(F)F)c(OS(=O)(=O)c2ccc3ccccc3c2)c1` [Compound 5h, (E)‐5‐(Diethylamino)‐2‐[(2‐{[2‐(trifluoromethyl)phenyl]carbamothioyl}hydrazineylidene)methyl]phenyl naphthalene‐2‐sulfonate], the IC50 is 100 ± 4.57 nM at hMAO‐A, 16.8 ± 1.35 nM in experiment [1], 145 ± 8.96 nM at BChE from equine serum and 249 ± 9.1 nM against hMAO‐B. Further, the figures for the Ki (in experiment [1]; at BChE from equine serum) were 14.6 ± 3.36 nM and 136 ± 9.17 nM, respectively.
As for `CCN(CC)c1ccc(/C=N/NC(=S)NC)c(OS(=O)(=O)c2ccc3ccccc3c2)c1` [Compound 5m, (E)‐5‐(Diethylamino)‐2‐{[2‐(methylcarbamothioyl)hydrazono]methyl}phenyl naphthalene‐2‐sulfonate], the IC50 came out at 132 ± 4.96 nM on hMAO‐A, 38.5 ± 3.21 nM in experiment [1], 214 ± 7.13 nM at BChE from equine serum and 369 ± 11.2 nM at hMAO‐B. The Ki stood at 30.2 ± 5.02 nM in experiment [1] and 193 ± 11.6 nM at BChE from equine serum.
